This is an account of results in US20090214529A9, “KINESIN INHIBITORS” (TaiGen Biotechnology Co., Ltd., priority 2007, published 2009).

The subject of one experiment is tumor cell. Nature of the experiment: Cytotoxicity assay (MTS). The following applies: 72 h; incubation for three days; read-out: IC50, tumor cell growth inhibition (MTS). The format is cell-based. The essentials:
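Tumour cells seeded overnight, then exposed to varying compound concentrations for three days. Viability read by MTS/PMS conversion to formazan (2 h, 37 °C, absorbance 490 nm). Results given as blank-corrected T/C (%) against vehicle controls.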

A further experiment concerns Human Colo205 cells. Nature of the experiment: Cell cycle arrest assay (flowcytometry, propidium iodide). The following applies: DNA content by flowcytometry. Format: cell-based. As for the experimental part: The efficacy of a test compound to arrest cells as a KSP inhibitor was determined by flowcytometry analysis. Human Colo205 cells were grown in 6-well plates and treated the next day with the test compound for various time lengths. They were then scraped from plates using a rubber policeman, washed with PBS, and centrifuged at 1,000 rpm for 5 minutes. 1 ML of a buffer containing 10 μM of propidium iodide and 50 ug/ml of RNase A was used to re-suspend the cells. The cells were subsequently incubated in this buffer for 10 minutes at room temperature in the dark, passed through a filter to remove cell clumps, and observed under a Coulter Epics XL-MCL Training Modules flowcytometer.

Experiment [1] relates to human colon cancer cell line (Colo205) xenograft. Put plainly: In vivo tumor growth inhibition assay, nude mice s.c. implanted tumor model. As to the method: The human colon cancer cell line (Colo205) obtained from the American Type Culture Collection (Rockville, Md.) was used for the xenograft model. The cell line was maintained in growth medium supplemented with L-glutamine, ribonucleosides, deoxyribonucleosides, 10% FCS, and the following antimicrobial agents: 100 IU/ml penicillin, […] streptomycin, and […] amphotericin B. Cultures were established in 75-cm^2 flasks (Costar, Cambridge, Mass.), maintained at 37° C. in a humidified atmosphere with 5% CO2 in air, and subcultured every 4˜7 days with 0.25% trypsin in HBSS (Invitrogen Life Technologies, Carlsbad, Calif.). For in vivo tumor growth, cells (1×10^7) suspended in 100 μl of PBS were inoculated in the flanks of 5-week-old female athymic BALB/cAnNCij-nu/nu mice (Charles River, Kanagawa, Japan). Seven days after inoculation (day 7), mice with tumors measuring 6-7 mm in diameter were randomly separated into 3 groups with five mice in each group. Compound 36 was dissolved in a vehicle (10% 40 mM sodium citrate, 5% Tween-80, 5% ethanol in saline) and intraperitoneally administered respectively to the groups of mice at the selected dose levels with the selected dosing regimen. A vehicle was administered to the third group of mice. Tumor size was measured twice weekly until day 30. Tumor volume (TV) was calculated as follows: volume=[length (mm)×width (mm)^2]×0.52. The tumor growth for each group was expressed by the median values of the ratio between the tumor volume measured at a specific day to the initial tumor volume measured at the day of first dosing.

Regarding `Cc1ccc(C(=O)N(CCN)C(c2nc3c(oc4ccc(F)cc43)c(=O)n2Cc2cc(C)cs2)C(C)C)cc1` (stereo not drawn) [Compound 84], in the experiment on tumor cell, the IC50 is less than 30 µM. Further, the “shift in cell cycle population” value in the experiment with Human Colo205 cells was “shift in the population of cells from a G0/G1 stage (2N DNA content) to a G2/M stage (4N DNA content)”. Further, the “tumor growth inhibition at day 20” value in experiment [1] (60 mg/Kg, q3dx3, day 20) is “more than 90%”.
As for `Cc1ccc(C(=O)N(CCN)C(c2nc3c(oc4ccc(F)cc43)c(=O)n2Cc2ccccc2)C(C)C)cc1` (stereo not drawn) [Compound 62], the “shift in cell cycle population” value in the experiment with Human Colo205 cells is recorded as “shift in the population of cells from a G0/G1 stage (2N DNA content) to a G2/M stage (4N DNA content)”.
As to `Cc1csc(Cn2c(C(C(C)C)N(CCN)C(=O)c3ccc(C)c(F)c3)nc3c(oc4ccc(F)cc43)c2=O)c1` (stereo not drawn) [Compound 168], the IC50 in the experiment on tumor cell is less than 30 µM. In addition, the “shift in cell cycle population” value with Human Colo205 cells is on record as “shift in the population of cells from a G0/G1 stage (2N DNA content) to a G2/M stage (4N DNA content)”.
As for `Cc1ccc(C(=O)N(CCN)C(c2nc3c(oc4ccc(Cl)cc43)c(=O)n2Cc2ccccc2)C(C)C)cc1` (stereo not drawn) [Compound 36], in the experiment with tumor cell, the IC50 was less than 30 µM. The “tumor growth inhibition (in words)” value in experiment [1] (40 mg/Kg and 30 mg/Kg, intraperitoneal, q2dx5, Colo205 xenograft) is listed as “significant tumor growth inhibition”. Also, in experiment [1] (40 mg/Kg and 30 mg/Kg, intraperitoneal, q2dx5, day 10), the “tumor growth inhibition at day 10” value was “more than 83%”. Further, in experiment [1] (40 mg/Kg and 30 mg/Kg, intraperitoneal, q2dx5, day 13), the “tumor growth inhibition at day 13” value is recorded as “more than 90%”. The “tumor growth inhibition at day 16” value in experiment [1] (40 mg/Kg and 30 mg/Kg, intraperitoneal, q2dx5, day 16) is “more than 92%”. For the same molecule, in experiment [1] (40 mg/Kg compared with 30 mg/Kg, q2dx5), the “tumor inhibition, higher dose versus lower dose” value is recorded as “stronger tumor inhibition”.
As to `Cc1ccc(C(=O)N(CCN)[C@@H](c2nc3c(oc4ccc(F)cc43)c(=O)n2Cc2ccc(Br)o2)C(C)C)cc1` [Compound 177], the IC50 in the experiment on tumor cell was less than 30 µM. Further, the “shift in cell cycle population” value with Human Colo205 cells is on record as “shift in the population of cells from a G0/G1 stage (2N DNA content) to a G2/M stage (4N DNA content)”.
The corresponding values for `Cc1ccc(C(=O)N(CCN)C(c2nc3c(oc4ccc(F)cc43)c(=O)n2Cc2ccc(Br)o2)C(C)C)cc1` (stereo not drawn) [Compound 81] are less than 30 µM and “shift in the population of cells from a G0/G1 stage (2N DNA content) to a G2/M stage (4N DNA content)”.
For `Cc1ccc(C(=O)N(CCN)C(c2nc3c(oc4ccc(F)cc43)c(=O)n2Cc2ccc(C#N)s2)C(C)C)cc1` (stereo not drawn) [Compound 83], in that order: less than 30 µM and “shift in the population of cells from a G0/G1 stage (2N DNA content) to a G2/M stage (4N DNA content)”.
The corresponding values for `Cc1ccc(C(=O)N(CCN)C(c2nc3c(oc4ccc(F)cc43)c(=O)n2Cc2ccc(C(F)(F)F)o2)C(C)C)cc1` (stereo not drawn) [Compound 86] are less than 30 µM and “shift in the population of cells from a G0/G1 stage (2N DNA content) to a G2/M stage (4N DNA content)”.
Consider `Cc1ccc(C(=O)N(CCN)C(c2nc3c(oc4ccc(F)cc43)c(=O)n2Cc2ccc(Br)s2)C(C)C)cc1` (stereo not drawn) [Compound 66], for which, in the experiment with tumor cell, the half-maximal inhibitory concentration (IC50) was less than 30 µM. In the experiment with Human Colo205 cells, the “shift in cell cycle population” value is on record as “shift in the population of cells from a G0/G1 stage (2N DNA content) to a G2/M stage (4N DNA content)”.
Turning to `CCCC(c1nc2c(oc3ccccc32)c(=O)n1Cc1ccccc1)N(CC(O)CN)C(=O)c1ccc(C)cc1` (stereo not drawn) [Compound 58], the IC50 in the experiment with tumor cell is less than 30 µM.
With `CCC(c1nc2c(oc3ccccc32)c(=O)n1Cc1ccccc1)N(CCCCN)C(=O)c1ccc(C)cc1` (stereo not drawn) [Compound 22], in the experiment with tumor cell, the IC50 was less than 30 µM.
Regarding `Cc1ccc(C(=O)N(CCCN)C(c2nc3c(oc4ccc(F)cc43)c(=O)n2Cc2cc(Br)co2)C(C)C)cc1` (stereo not drawn) [Compound 93], in the experiment with tumor cell, the IC50 was less than 30 µM.
On to `Cc1ccc(C(=O)N(CCCN)C(c2nc3c(oc4ccc(Cl)cc43)c(=O)n2Cc2cc(C)cs2)C(C)C)cc1` (stereo not drawn) [Compound 95], for which the IC50 in the experiment with tumor cell is less than 30 µM.
Still for that read-out and setting: to `Cc1ccc(C(=O)N(CCN)[C@@H](c2nc3c(oc4ccc(F)cc43)c(=O)n2Cc2ccc(Br)o2)C2CC2)cc1` [Compound 223] belongs less than 30 µM; to `Cc1ccc(C(=O)N(CCCN)C(c2nc3c(oc4ccc(Cl)cc43)c(=O)n2Cc2ccsc2)C(C)C)cc1` (stereo not drawn) [Compound 78], less than 30 µM.
Same read-out and setting: to `Cc1ccc(C(=O)N(CCN)C(c2nc3c(oc4ccccc43)c(=O)n2Cc2cc(C)cs2)C(C)C)cc1` (stereo not drawn) [Compound 161] belongs less than 30 µM; to `CCC(c1nc2c(oc3ccccc32)c(=O)n1Cc1ccccc1)N(CCN)C(=O)c1ccc(C)cc1` (stereo not drawn) [Compound 21], less than 30 µM; to `Cc1ccc(C(=O)N(CCCN)C(c2nc3c(oc4cccc(F)c43)c(=O)n2Cc2ccccc2)C(C)C)cc1` (stereo not drawn) [Compound 61], less than 30 µM.
Same read-out and setting: to `Cc1csc(Cn2c([C@@H](C(C)C)N(CCN)C(=O)c3ccc(Cl)cc3)nc3c(oc4ccc(F)cc43)c2=O)c1` [Compound 181] belongs less than 30 µM; to `Cc1ccc(C(=O)N(CCN)[C@@H](c2nc3c(oc4ccc(F)cc43)c(=O)n2Cc2ccccc2)C(C)C)cc1F` [Compound 192], less than 30 µM.
With `Cc1ccc(C(=O)N(CCCN)C(c2nc3c(oc4ccc(Cl)cc43)c(=O)n2Cc2cccs2)C(C)C)cc1` (stereo not drawn) [Compound 43], the IC50 in the experiment with tumor cell was less than 30 µM.
Same read-out and setting: the same measure for `CCCC(c1nc2c(oc3ccccc32)c(=O)n1Cc1ccccc1)N(CCN)C(=O)c1ccc(C)cc1` (stereo not drawn) [Compound 51]: less than 30 µM.
Same read-out and setting: the same measure for `Cc1ccc(C(=O)N(CCN)C(c2nc3c(oc4ccc(F)cc43)c(=O)n2Cc2ccc(C(=O)NCC(F)F)s2)C(C)C)cc1` (stereo not drawn) [Compound 120]: less than 30 µM; for `CCC(c1nc2c(oc3ccc(Cl)cc32)c(=O)n1Cc1ccccc1)N(CCN)C(=O)c1ccc(C)cc1` (stereo not drawn) [Compound 32]: less than 30 µM.
On the same count and under the same terms, the same measure for `Cc1ccc(C(=O)N(CCCN)C(c2nc3c(oc4ccc(F)cc43)c(=O)n2Cc2ccc(Br)s2)C(C)C)cc1` (stereo not drawn) [Compound 70]: less than 30 µM; for `Cc1ccc(C(=O)N(CCCN)C(c2nc3c(oc4ccccc43)c(=O)n2Cc2ccccc2F)C(C)C)cc1` (stereo not drawn) [Compound 27]: less than 30 µM.
Consider `Cc1ccc(C(=O)N(CCN)C(c2nc3c(oc4ccccc43)c(=O)n2Cc2ccc(C#N)s2)C(C)C)cc1` (stereo not drawn) [Compound 163], for which, in the experiment with tumor cell, the IC50 was less than 30 µM.
On the same count and under the same terms, to `Cc1ccc(C(=O)N(CCCN)C(c2nc3c(oc4ccc(F)cc43)c(=O)n2Cc2cccs2)C(C)C)cc1` (stereo not drawn) [Compound 74] belongs less than 30 µM; to `CC(C)[C@H](c1nc2c(oc3ccc(F)cc32)c(=O)n1Cc1ccoc1)N(CCN)C(=O)c1ccc(Cl)cc1` [Compound 198], less than 30 µM.
On the same count and under the same terms, to `Cc1ccc(C(=O)N(CCN)C(c2nc3c(oc4ccc(Cl)cc43)c(=O)n2Cc2cccc(F)c2)C(C)C)cc1` (stereo not drawn) [Compound 96] belongs less than 30 µM.
Same read-out and setting: to `Cc1ccc(C(=O)N(CCCN)C(c2nc3c(sc4ccccc43)c(=O)n2Cc2cccs2)C(C)C)cc1` (stereo not drawn) [Compound 148] belongs less than 30 µM; to `Cc1ccc(C(=O)N(CCCN)C(c2nc3c(Br)c4ccccc4cc3c(=O)n2Cc2ccccc2)C(C)C)cc1` (stereo not drawn) [Compound 4], less than 30 µM; to `Cc1ccc(C(=O)N(CCN)C(c2nc3c(oc4ccc(Cl)cc43)c(=O)n2Cc2ccc(C#N)s2)C(C)C)cc1` (stereo not drawn) [Compound 48], less than 30 µM.
For the molecule `CCC(c1nc2c(oc3ccccc32)c(=O)n1Cc1ccccc1)N(CCCN(C)C)C(=O)c1ccc(C)cc1` (stereo not drawn) [Compound 19], the IC50 with tumor cell is less than 30 µM.
The same measure, in the same setting: to `Cc1ccc(C(=O)N(CCCN)C(c2nc3c(sc4ccccc43)c(=O)n2Cc2ccc(Cl)s2)C(C)C)cc1` (stereo not drawn) [Compound 138] belongs less than 30 µM; to `Cc1ccc(C(=O)N(CCCN)[C@@H](c2nc3c(oc4ccc(F)cc43)c(=O)n2Cc2cc(C)cs2)C(C)C)cc1` [Compound 211], less than 30 µM.
The same measure, in the same setting: the same measure for `Cc1ccc(C(=O)N(CCN)[C@@H](c2nc3c(oc4ccc(F)cc43)c(=O)n2Cc2cc(Br)cs2)C(C)C)cc1` [Compound 215]: less than 30 µM; for `Cc1ccc(C(=O)N(CCCN)C(c2nc3c(oc4ccc(F)cc43)c(=O)n2Cc2cccc(F)c2)C(C)C)cc1` (stereo not drawn) [Compound 80]: less than 30 µM; for `Cc1ccc(C(=O)N(CCN)C(c2nc3c(oc4ccc(F)cc43)c(=O)n2Cc2ccc(C(N)=O)o2)C(C)C)cc1` (stereo not drawn) [Compound 113]: less than 30 µM.
The same measure, in the same setting: the same measure for `CC(C)C(c1nc2c(oc3ccc(F)cc32)c(=O)n1Cc1ccccc1)N(CCN)C(=O)c1ccc(Br)cc1` (stereo not drawn) [Compound 65]: less than 30 µM.
On to `CC(C)C(c1nc2c(oc3ccc(F)cc32)c(=O)n1Cc1ccc(C#N)s1)N(CCN)C(=O)c1ccc(Cl)cc1` (stereo not drawn) [Compound 172], for which the IC50 in the experiment with tumor cell was less than 30 µM.
